Laboratory results taken from the supplement of paper PMC13380429.

Columns and labels:
Conditions in all cases: 72 h
Caco-2 [1] = assay: drug sensitivity score (DSS) for viability; higher = more toxic; extreme values may be limits of the assay
U2OS [2] = assay: as above
Vero E6 [3] = assay: as above
HepG2 [4] = assay: as above
Calu-3 [5] = assay: as above
Caco-2 [6] = assay: relative viability EC50 (midpoint between 100% and the lowest measured viability); higher = less toxic
U2OS [7] = assay: as above
Vero E6 [8] = assay: as above
HepG2 [9] = assay: as above
Calu-3 [10] = assay: as above
Caco-2 [11] = assay: cell viability relative to DMSO; higher = less toxic
U2OS [12] = assay: as above
Vero E6 [13] = assay: as above
HepG2 [14] = assay: as above
Calu-3 [15] = assay: as above

| Structure (SMILES) | drug sensitivity score (Caco-2 [1]) | drug sensitivity score (U2OS [2]) | drug sensitivity score (Vero E6 [3]) | drug sensitivity score (HepG2 [4]) | drug sensitivity score (Calu-3 [5]) | relative viability EC50 (Caco-2 [6]) [µM] | relative viability EC50 (U2OS [7]) [µM] | relative viability EC50 (Vero E6 [8]) [µM] | relative viability EC50 (HepG2 [9]) [µM] | relative viability EC50 (Calu-3 [10]) [µM] | cell viability (Caco-2 [11]; 1 nM) [%] | cell viability (Caco-2 [11]; 10 nM) [%] | cell viability (Caco-2 [11]; 100 nM) [%] | cell viability (Caco-2 [11]; 1000 nM) [%] | cell viability (Caco-2 [11]; 10000 nM) [%] | cell viability (U2OS [12]; 1 nM) [%] | cell viability (U2OS [12]; 10 nM) [%] | cell viability (U2OS [12]; 100 nM) [%] | cell viability (U2OS [12]; 1000 nM) [%] | cell viability (U2OS [12]; 10000 nM) [%] | cell viability (Vero E6 [13]; 1 nM) [%] | cell viability (Vero E6 [13]; 10 nM) [%] | cell viability (Vero E6 [13]; 100 nM) [%] | cell viability (Vero E6 [13]; 1000 nM) [%] | cell viability (Vero E6 [13]; 10000 nM) [%] | cell viability (HepG2 [14]; 1 nM) [%] | cell viability (HepG2 [14]; 10 nM) [%] | cell viability (HepG2 [14]; 100 nM) [%] | cell viability (HepG2 [14]; 1000 nM) [%] | cell viability (HepG2 [14]; 10000 nM) [%] | cell viability (Calu-3 [15]; 1 nM) [%] | cell viability (Calu-3 [15]; 10 nM) [%] | cell viability (Calu-3 [15]; 100 nM) [%] | cell viability (Calu-3 [15]; 1000 nM) [%] | cell viability (Calu-3 [15]; 10000 nM) [%] |
| --- | --- | --- | --- | --- | --- | --- | --- | --- | --- | --- | --- | --- | --- | --- | --- | --- | --- | --- | --- | --- | --- | --- | --- | --- | --- | --- | --- | --- | --- | --- | --- | --- | --- | --- | --- |
| O=C(COc1ccc(Cl)cc1)N1CCN(Cc2ccc3c(c2)OCO3)CC1 [fipexide] | 0 | 0 | 0 | 0 | 0 | > 10 | > 10 | > 10 | > 10 | > 10 | 98.8 | 90.1 | 93.5 | 93.4 | 88.4 | 102 | 100 | 101 | 95.2 | 96.2 | 97.6 | 99.9 | 101 | 101 | 97.6 | 83.9 | 90.8 | 86.6 | 93.8 | 102 | 101 | 93.1 | 103 | 93.5 | 110 |
| CCC1=C(C)CN(C(=O)NCCc2ccc(S(=O)(=O)NC(=O)N[C@H]3CC[C@H](C)CC3)cc2)C1=O [glimepiride] | 1.8 | 0 | 0 | 0 | 0 | > 10 | > 10 | > 10 | > 10 | > 10 | 87.2 | 94.3 | 98.9 | 91.4 | 76.2 | 98.9 | 99.2 | 97.7 | 99.8 | 92.1 | 111 | 110 | 105 | 91.9 | 95.3 | 83.1 | 90.7 | 104 | 98.7 | 104 | 98.6 | 104 | 91.7 | 104 | 98.6 |
| CC#CCC(C)[C@H](O)/C=C/[C@@H]1[C@H]2C/C(=C/CCCC(=O)O)C[C@H]2C[C@H]1O (stereo not given in full) [iloprost] | 0 | 0 | 0 | 0 | 0 | > 10 | > 10 | > 10 | > 10 | > 10 | 92.2 | 105 | 100 | 95.2 | 105 | 96 | 101 | 93.3 | 98.4 | 94 | 96.2 | 101 | 97 | 98.8 | 99.3 | 97.8 | 90.6 | 106 | 97.1 | 98.2 | 99.3 | 96.8 | 85 | 91.5 | 103 |
| C[C@H]1N=C(N(C)C)N=C(N)N1 [imeglimin] | 0 | 0 | 0 | 0 | 0 | > 10 | > 10 | > 10 | > 10 | > 10 | 86.3 | 88 | 96.2 | 97.3 | 97.6 | 99.7 | 105 | 96.9 | 102 | 103 | 92.5 | 96.2 | 92.8 | 101 | 105 | 96.4 | 96.7 | 97.7 | 99 | 100 | 97 | 114 | 96.9 | 104 | 104 |
| COc1cc2c(cc1OC)CC(=O)N(CCCN(C)C[C@H]1Cc3cc(OC)c(OC)cc31)CC2 [ivabradine] | 0 | 0 | 0 | 0 | 0 | > 10 | > 10 | > 10 | > 10 | > 10 | 98.3 | 85.6 | 102 | 100 | 99.8 | 106 | 102 | 99.6 | 99.1 | 101 | 101 | 99.7 | 100 | 107 | 99.4 | 109 | 113 | 98.2 | 102 | 89.3 | 111 | 85.1 | 98.4 | 101 | 105 |
| Nc1ccn([C@@H]2CS[C@H](CO)O2)c(=O)n1 [lamivudine] | 0.7 | 0 | 0 | 0 | 0 | > 10 | > 10 | > 10 | > 10 | > 10 | 83 | 100 | 89.3 | 88.7 | 84.5 | 96.9 | 102 | 97.7 | 102 | 97.1 | 102 | 105 | 97.4 | 85.8 | 99.2 | 93.9 | 93.4 | 98.8 | 99.1 | 106 | 107 | 89.6 | 89.4 | 96.9 | 97.6 |
| O=C1N(c2ccccc2)c2ccccc2C1(Cc1ccncc1)Cc1ccncc1 [linopirdine] | 0 | 0 | 0 | 0 | 0 | > 10 | > 10 | > 10 | > 10 | > 10 | 91.4 | 93.2 | 88.3 | 98.8 | 93.1 | 94.6 | 101 | 98.7 | 103 | 98.7 | 106 | 97.3 | 106 | 96.9 | 99.2 | 111 | 102 | 94.9 | 105 | 102 | 92.4 | 98.5 | 98.9 | 103 | 97.2 |
| Cc1nccc2[nH]c(=O)ccc12 [medorinone] | 0 | 0 | 0 | 0 | 0 | > 10 | > 10 | > 10 | > 10 | > 10 | 104 | 102 | 102 | 93.9 | 97.8 | 97.9 | 100 | 97.4 | 99.7 | 97.8 | 102 | 101 | 97 | 97.1 | 98.5 | 112 | 99.5 | 102 | 96.8 | 109 | 113 | 102 | 91 | 98.8 | 96.3 |
| CC(=O)[C@H]1CC[C@H]2[C@@H]3C[C@H](C)C4=CC(=O)CC[C@]4(C)[C@H]3[C@@H](O)C[C@]12C [medrysone] | 0 | 0 | 0 | 0 | 0 | > 10 | > 10 | > 10 | > 10 | > 10 | 90.4 | 97.5 | 98.2 | 101 | 102 | 97.6 | 97.4 | 99.8 | 101 | 99.6 | 98 | 95 | 97.9 | 95.6 | 100 | 102 | 98.4 | 108 | 101 | 112 | 91.5 | 98.5 | 101 | 91.3 | 93.4 |
| CN1c2c([nH]c(N)nc2=O)NC[C@@H]1CNc1ccc(C(=O)N[C@@H](CCC(=O)O)C(=O)O)cc1 [metafolin] | 0 | 0 | 0 | 0 | 0 | > 10 | > 10 | > 10 | > 10 | > 10 | 95.4 | 90.3 | 85.3 | 98.1 | 102 | 94.9 | 100 | 92.5 | 105 | 101 | 96.1 | 91.6 | 96.3 | 83.2 | 104 | 102 | 89.8 | 105 | 110 | 108 | 91.1 | 106 | 105 | 96.5 | 96.9 |
| CC[C@@H](CO)NC(=O)[C@@H]1C=C2c3cccc4c3c(cn4C)C[C@H]2N(C)C1 [methysergide] | 0 | 0 | 0 | 0 | 0 | > 10 | > 10 | > 10 | > 10 | > 10 | 95.9 | 89.6 | 100 | 94.3 | 110 | 101 | 96.1 | 100 | 92.3 | 98.7 | 96 | 100 | 91.9 | 99.7 | 111 | 94.8 | 96.9 | 102 | 102 | 111 | 88.7 | 99.1 | 102 | 97 | 102 |
| COCCc1ccc(OCC(O)CNC(C)C)cc1 (stereo not given) [metoprolol] | 0 | 0 | 0 | 0 | 0 | > 10 | > 10 | > 10 | > 10 | > 10 | 102 | 136 | 91.8 | 110 | 94.4 | 103 | 109 | 99 | 108 | 104 | 97.7 | 97.1 | 96.1 | 93.6 | 96.2 | 112 | 79.4 | 122 | 79.7 | 93.6 | 93.1 | 106 | 93.2 | 101 | 98.7 |
| O=c1c(O)c(-c2cc(O)c(O)c(O)c2)oc2cc(O)cc(O)c12 [myricetin] | 0 | 0 | 0 | 0 | 0 | > 10 | > 10 | > 10 | > 10 | > 10 | 97.2 | 99.2 | 98.8 | 101 | 96 | 93.6 | 105 | 97.4 | 99.6 | 103 | 94.1 | 97.7 | 95.4 | 95.8 | 97.5 | 96.9 | 91.9 | 106 | 94.4 | 96.3 | 105 | 98.5 | 96 | 102 | 105 |
| CCOc1ccc2ccccc2c1C(=O)N[C@@H]1C(=O)N2[C@@H]1SC(C)(C)[C@@H]2C(=O)O [nafcillin] | 0 | 0 | 0 | 0 | 0 | > 10 | > 10 | > 10 | > 10 | > 10 | 99 | 96.4 | 99.9 | 101 | 105 | 98.2 | 99.6 | 94.5 | 100 | 106 | 103 | 90.3 | 94.2 | 104 | 95.7 | 99.5 | 91.5 | 96.8 | 92.4 | 99.5 | 91.1 | 107 | 101 | 99.5 | 102 |
